Experimental data reported in US20250032460A1, “METHODS OF TREATING NEUROLOGICAL DISORDERS” (MapLight Therapeutics, Inc., priority 2021, published 2025).
Where “and” joins values, the source holds several entries; their conditions need not be identical. Equal entries are not always repeated.

Test: Plasma concentrations during 7-day oral dosing in beagle dogs
Assay type: in vivo
[1] = Group 2: fesoterodine fumarate 3 mg/kg/day PO alone, Day 1, 0.25 h
[2] = Group 2: fesoterodine fumarate 3 mg/kg/day PO alone, Day 1, 0.5 h
[3] = Group 2: fesoterodine fumarate 3 mg/kg/day PO alone, Day 1, 1 h
[4] = Group 2: fesoterodine fumarate 3 mg/kg/day PO alone, Day 1, 2 h
[5] = Group 2: fesoterodine fumarate 3 mg/kg/day PO alone, Day 1, 4 h
[6] = Group 2: fesoterodine fumarate 3 mg/kg/day PO alone, Day 1, 8 h
[7] = Group 2: fesoterodine fumarate 3 mg/kg/day PO alone, Day 7, 0.25 h
[8] = Group 2: fesoterodine fumarate 3 mg/kg/day PO alone, Day 7, 0.5 h
[9] = Group 2: fesoterodine fumarate 3 mg/kg/day PO alone, Day 7, 1 h
[10] = Group 2: fesoterodine fumarate 3 mg/kg/day PO alone, Day 7, 2 h
[11] = Group 2: fesoterodine fumarate 3 mg/kg/day PO alone, Day 7, 4 h
[12] = Group 2: fesoterodine fumarate 3 mg/kg/day PO alone, Day 7, 8 h
[13] = Group 3: Compound 1 1.5 mg/kg/day PO + fesoterodine fumarate 3 mg/kg/day PO, Day 1, 0.250 h
[14] = Group 3: Compound 1 1.5 mg/kg/day PO + fesoterodine fumarate 3 mg/kg/day PO, Day 1, 0.500 h
[15] = Group 3: Compound 1 1.5 mg/kg/day PO + fesoterodine fumarate 3 mg/kg/day PO, Day 1, 0.750 h
[16] = Group 3: Compound 1 1.5 mg/kg/day PO + fesoterodine fumarate 3 mg/kg/day PO, Day 1, 1.00 h

CC(C)N(CCC(c1ccccc1)c1cc(CO)ccc1O)C(C)C (stereo not shown) [desfesoterodine, 5-hydroxymethyl tolterodine]
Plasma concentration of desfesoterodine, Mean [1]: 87.775 ng/mL
Plasma concentration of desfesoterodine, individual animals D2001-D2005 [1]: 34.2 ng/ml and 267 ng/ml and 14 ng/ml and BQL and 35.9 ng/ml
Plasma concentration of desfesoterodine, Mean [2]: 75.32 ng/mL
Plasma concentration of desfesoterodine, individual animals D2001-D2005 [2]: 68.4 ng/mL and 176 ng/mL and 75.3 ng/mL and 23.2 ng/mL and 33.7 ng/mL
Plasma concentration of desfesoterodine, Mean [3]: 53.38 ng/mL
Plasma concentration of desfesoterodine, individual animals D2001-D2005 [3]: 31.9 ng/mL and 104 ng/mL and 49.5 ng/mL and 67.6 ng/mL and 13.9 ng/mL
Plasma concentration of desfesoterodine, Mean [4]: 25.296 ng/mL
Plasma concentration of desfesoterodine, individual animals D2001-D2005 [4]: 15.6 ng/mL and 48.4 ng/mL and 15.7 ng/mL and 41.4 ng/mL and 5.38 ng/mL
Plasma concentration of desfesoterodine, Mean [5]: 10.096 ng/mL
Plasma concentration of desfesoterodine, individual animals D2001-D2005 [5]: 12.9 ng/mL and 15.4 ng/mL and 3.93 ng/mL and 14.9 ng/mL and 3.35 ng/mL
Plasma concentration of desfesoterodine, Mean [6]: 3.3175 ng/mL
Plasma concentration of desfesoterodine, individual animals D2001-D2005 [6]: 4.42 ng/ml and 1.74 ng/ml and 2.96 ng/ml and 4.15 ng/ml and BQL
Plasma concentration of desfesoterodine, individual animals D2001-D2005 (Group 2: fesoterodine fumarate 3 mg/kg/day PO alone, Day 1, 24 h): BQL
Plasma concentration of desfesoterodine, individual animals D2001-D2005 (Group 2: fesoterodine fumarate 3 mg/kg/day PO alone, Day 7, 0 h): 1.13 ng/ml and BQL (4×)
Plasma concentration of desfesoterodine, Mean [7]: 103.4 ng/mL
Plasma concentration of desfesoterodine, individual animals D2001-D2005 [7]: 15.3 ng/mL and 315 ng/mL and 121 ng/mL and 47.3 ng/mL and 18.4 ng/mL
Plasma concentration of desfesoterodine, Mean [8]: 167.64 ng/mL
Plasma concentration of desfesoterodine, individual animals D2001-D2005 [8]: 318 ng/mL and 274 ng/mL and 154 ng/mL and 75.6 ng/mL and 16.6 ng/mL
Plasma concentration of desfesoterodine, Mean [9]: 118.7 ng/mL
Plasma concentration of desfesoterodine, individual animals D2001-D2005 [9]: 173 ng/mL and 232 ng/mL and 111 ng/mL and 65.7 ng/mL and 11.8 ng/mL
Plasma concentration of desfesoterodine, Mean [10]: 78.62 ng/mL
Plasma concentration of desfesoterodine, individual animals D2001-D2005 [10]: 91.9 ng/mL and 145 ng/mL and 72.6 ng/mL and 57.8 ng/mL and 25.8 ng/mL
Plasma concentration of desfesoterodine, Mean [11]: 45.66 ng/mL
Plasma concentration of desfesoterodine, individual animals D2001-D2005 [11]: 51.4 ng/mL and 48.6 ng/mL and 44 ng/mL and 40.8 ng/mL and 43.5 ng/mL
Plasma concentration of desfesoterodine, Mean [12]: 8.066 ng/mL
Plasma concentration of desfesoterodine, individual animals D2001-D2005 [12]: 8.12 ng/mL and 7.08 ng/mL and 6.52 ng/mL and 13.8 ng/mL and 4.81 ng/mL
Plasma concentration of desfesoterodine, individual animals D2001-D2005 (Group 2: fesoterodine fumarate 3 mg/kg/day PO alone, Day 7, 24 h): BQL
Plasma concentration of desfesoterodine, individual animals D3001-D3005 (Group 3: Compound 1 1.5 mg/kg/day PO + fesoterodine fumarate 3 mg/kg/day PO, Day 1, 0.00 h): BQL
Plasma concentration of desfesoterodine, Mean [13]: 125 ng/mL
Plasma concentration of desfesoterodine, individual animals D3001-D3005 [13]: 225 ng/mL and 35.2 ng/mL and 333 ng/mL and 23.3 ng/mL and 9.33 ng/mL
Plasma concentration of desfesoterodine, Mean [14]: 111 ng/mL
Plasma concentration of desfesoterodine, individual animals D3001-D3005 [14]: 154 ng/mL and 58.0 ng/mL and 257 ng/mL and 35.9 ng/mL and 52.4 ng/mL
Plasma concentration of desfesoterodine, Mean [15]: 100 ng/mL
Plasma concentration of desfesoterodine, individual animals D3001-D3005 [15]: 136 ng/mL and 35.1 ng/mL and 203 ng/mL and 64.7 ng/mL and 61.3 ng/mL
Plasma concentration of desfesoterodine, Mean [16]: 66.6 ng/mL
Plasma concentration of desfesoterodine, individual animals D3001-D3005 [16]: 96.0 ng/mL and 30.6 ng/mL and 149 ng/mL and 15.8 ng/mL and 41.5 ng/mL
Plasma concentration of desfesoterodine, Mean (Group 3: Compound 1 1.5 mg/kg/day PO + fesoterodine fumarate 3 mg/kg/day PO, Day 1, 2.00 h): 36.0 ng/mL
